One test deals with T1, Alpha-mannosidase 2 (Rattus norvegicus, UniProt P28494).
T1 sequence (P28494 whole entry): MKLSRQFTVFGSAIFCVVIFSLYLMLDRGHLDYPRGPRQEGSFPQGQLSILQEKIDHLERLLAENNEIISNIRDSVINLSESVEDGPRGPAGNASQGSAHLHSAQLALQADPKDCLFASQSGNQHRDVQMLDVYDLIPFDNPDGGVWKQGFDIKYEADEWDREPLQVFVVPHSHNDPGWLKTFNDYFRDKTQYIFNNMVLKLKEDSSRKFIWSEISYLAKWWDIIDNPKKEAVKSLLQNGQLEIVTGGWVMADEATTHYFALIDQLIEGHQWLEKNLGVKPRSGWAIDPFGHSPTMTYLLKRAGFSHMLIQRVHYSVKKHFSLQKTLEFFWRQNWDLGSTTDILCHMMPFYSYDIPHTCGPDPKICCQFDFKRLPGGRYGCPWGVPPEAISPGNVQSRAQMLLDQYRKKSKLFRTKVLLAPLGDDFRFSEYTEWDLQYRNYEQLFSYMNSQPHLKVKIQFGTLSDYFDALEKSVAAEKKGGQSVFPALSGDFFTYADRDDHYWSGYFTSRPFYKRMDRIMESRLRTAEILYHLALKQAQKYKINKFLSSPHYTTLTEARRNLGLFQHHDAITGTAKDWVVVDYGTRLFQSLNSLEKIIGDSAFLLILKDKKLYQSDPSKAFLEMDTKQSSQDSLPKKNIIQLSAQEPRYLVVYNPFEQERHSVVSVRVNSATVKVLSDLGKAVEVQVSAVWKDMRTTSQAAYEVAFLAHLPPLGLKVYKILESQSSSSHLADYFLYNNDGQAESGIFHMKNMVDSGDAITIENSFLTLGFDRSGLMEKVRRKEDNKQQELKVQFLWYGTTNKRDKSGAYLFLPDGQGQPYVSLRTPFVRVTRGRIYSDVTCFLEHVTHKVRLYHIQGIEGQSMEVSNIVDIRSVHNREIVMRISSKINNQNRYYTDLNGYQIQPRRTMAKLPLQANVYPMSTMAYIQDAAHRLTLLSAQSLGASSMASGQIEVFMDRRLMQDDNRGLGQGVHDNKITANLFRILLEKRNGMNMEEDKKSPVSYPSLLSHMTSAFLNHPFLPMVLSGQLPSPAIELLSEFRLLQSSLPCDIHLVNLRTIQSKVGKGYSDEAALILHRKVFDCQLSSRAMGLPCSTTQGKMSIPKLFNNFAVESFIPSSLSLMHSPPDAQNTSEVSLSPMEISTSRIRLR
The test is described as follows: Inhibition of golgi Alpha-mannosidase II in rat liver. Type of test: tissue-based.

Test [1] can be described thus: Inhibition of endoplasmic reticulum Alpha-Glucosidase II in rat liver. It counts as tissue-based.
The nature of test [2]: Inhibition of lysosomal Alpha-Glucosidase II in rat liver.
A short description of test [3]: Competitive Inhibitory activity against Endoplasmic reticulum Alpha-Glucosidase II. The arrangement: species or system Rattus norvegicus.
Test [4] is described as follows: Inhibition of Cellobiase in rat intestinal brush border membranes by D-glucose oxidase-peroxidase method. Type of test: cell membranes, Membrane.
The next test deals with MOLT-4. The test is described as follows: Concentration giving 50% inhibition of HIV-1 induced cytopathogenicity in MOLT-4 cells. It counts as functional, cell-based, Homo sapiens.
The next test deals with T2, Trehalase (Rattus norvegicus, UniProt O70282).
T2 sequence (O70282 whole entry): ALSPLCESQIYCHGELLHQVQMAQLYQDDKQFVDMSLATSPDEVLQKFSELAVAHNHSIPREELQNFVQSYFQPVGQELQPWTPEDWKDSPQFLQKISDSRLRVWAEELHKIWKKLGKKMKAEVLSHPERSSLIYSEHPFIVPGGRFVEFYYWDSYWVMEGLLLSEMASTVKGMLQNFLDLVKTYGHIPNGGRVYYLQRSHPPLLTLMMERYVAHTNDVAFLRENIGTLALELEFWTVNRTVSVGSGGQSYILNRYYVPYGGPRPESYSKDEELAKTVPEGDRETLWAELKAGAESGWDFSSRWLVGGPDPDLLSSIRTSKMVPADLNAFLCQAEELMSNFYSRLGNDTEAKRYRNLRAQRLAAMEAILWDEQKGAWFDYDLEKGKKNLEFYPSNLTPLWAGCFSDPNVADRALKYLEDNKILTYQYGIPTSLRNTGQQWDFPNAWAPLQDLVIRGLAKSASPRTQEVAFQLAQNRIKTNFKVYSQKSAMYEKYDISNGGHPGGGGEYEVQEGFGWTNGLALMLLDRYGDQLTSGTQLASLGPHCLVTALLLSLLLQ
The test is described as follows: Inhibition of Glycosidases (trehalase)in rat intestinal brush border membranes by D-glucose oxidase-peroxidase method. Type of test: cell membranes, Membrane.

For test [5], the target named is T3, Sucrase-isomaltase, intestinal (Rattus norvegicus, UniProt P23739). The test is described as follows: Inhibition of Glycosidases (isomaltase)in rat intestinal brush border membranes by D-glucose oxidase-peroxidase method. Type of test: cell membranes, Membrane.
T3 sequence (P23739 1-1013 limits assumed): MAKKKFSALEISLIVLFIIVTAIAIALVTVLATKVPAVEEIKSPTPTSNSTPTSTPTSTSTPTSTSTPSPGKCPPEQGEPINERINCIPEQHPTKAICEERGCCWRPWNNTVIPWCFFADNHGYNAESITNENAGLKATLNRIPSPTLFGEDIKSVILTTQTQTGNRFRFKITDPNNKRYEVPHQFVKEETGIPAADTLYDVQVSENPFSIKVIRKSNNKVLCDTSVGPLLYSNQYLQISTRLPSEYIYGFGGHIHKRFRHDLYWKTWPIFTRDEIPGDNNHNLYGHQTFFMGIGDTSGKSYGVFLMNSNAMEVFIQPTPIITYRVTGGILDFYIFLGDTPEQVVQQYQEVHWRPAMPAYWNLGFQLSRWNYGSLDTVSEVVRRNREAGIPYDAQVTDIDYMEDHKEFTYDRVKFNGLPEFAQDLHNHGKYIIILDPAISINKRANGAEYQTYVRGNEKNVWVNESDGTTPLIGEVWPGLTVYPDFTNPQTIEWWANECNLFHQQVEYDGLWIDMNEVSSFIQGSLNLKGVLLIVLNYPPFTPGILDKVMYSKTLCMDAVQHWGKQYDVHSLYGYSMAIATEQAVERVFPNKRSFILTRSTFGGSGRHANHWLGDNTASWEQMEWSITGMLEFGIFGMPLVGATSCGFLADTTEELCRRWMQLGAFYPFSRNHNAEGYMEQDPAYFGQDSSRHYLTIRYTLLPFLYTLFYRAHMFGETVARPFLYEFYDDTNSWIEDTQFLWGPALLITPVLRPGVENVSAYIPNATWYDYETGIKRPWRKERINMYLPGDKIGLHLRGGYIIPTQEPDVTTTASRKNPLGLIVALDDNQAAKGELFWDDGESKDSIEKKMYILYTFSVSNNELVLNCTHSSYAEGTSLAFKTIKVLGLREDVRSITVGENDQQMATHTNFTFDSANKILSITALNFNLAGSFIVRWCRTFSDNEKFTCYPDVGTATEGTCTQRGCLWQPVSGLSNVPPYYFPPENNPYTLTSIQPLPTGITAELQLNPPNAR
T3 sequence (P23739 1014-1841 limits assumed): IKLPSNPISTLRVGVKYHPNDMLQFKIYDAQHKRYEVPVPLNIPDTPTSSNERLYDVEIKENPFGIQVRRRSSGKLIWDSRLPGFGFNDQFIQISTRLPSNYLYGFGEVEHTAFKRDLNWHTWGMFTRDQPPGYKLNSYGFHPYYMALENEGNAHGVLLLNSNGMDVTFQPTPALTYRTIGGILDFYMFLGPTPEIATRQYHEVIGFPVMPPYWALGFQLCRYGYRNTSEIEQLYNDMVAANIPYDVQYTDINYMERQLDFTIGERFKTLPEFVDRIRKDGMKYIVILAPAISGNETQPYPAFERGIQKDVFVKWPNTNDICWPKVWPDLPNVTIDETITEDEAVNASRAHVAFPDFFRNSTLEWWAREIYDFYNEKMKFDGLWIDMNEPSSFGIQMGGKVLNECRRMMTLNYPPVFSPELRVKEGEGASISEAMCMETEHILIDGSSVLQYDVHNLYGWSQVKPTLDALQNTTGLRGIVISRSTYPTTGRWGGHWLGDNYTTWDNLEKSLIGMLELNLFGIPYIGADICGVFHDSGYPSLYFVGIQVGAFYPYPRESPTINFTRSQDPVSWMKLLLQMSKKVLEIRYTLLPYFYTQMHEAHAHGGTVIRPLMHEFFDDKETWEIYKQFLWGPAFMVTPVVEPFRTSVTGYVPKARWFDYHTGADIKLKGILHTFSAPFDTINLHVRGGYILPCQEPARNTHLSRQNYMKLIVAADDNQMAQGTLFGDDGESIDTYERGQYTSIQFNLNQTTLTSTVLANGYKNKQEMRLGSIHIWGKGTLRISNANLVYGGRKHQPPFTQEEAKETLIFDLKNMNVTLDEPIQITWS
The target of test [6] is Lactase/phlorizin hydrolase (Rattus norvegicus, UniProt Q02401). As to the kind of experiment: Inhibition of Glycosidases (lactase)in rat intestinal brush border membranes by D-glucose oxidase-peroxidase method. Type of test: cell membranes, Membrane.
Lactase/phlorizin hydrolase, sequence (Q02401 868-1928 limits assumed): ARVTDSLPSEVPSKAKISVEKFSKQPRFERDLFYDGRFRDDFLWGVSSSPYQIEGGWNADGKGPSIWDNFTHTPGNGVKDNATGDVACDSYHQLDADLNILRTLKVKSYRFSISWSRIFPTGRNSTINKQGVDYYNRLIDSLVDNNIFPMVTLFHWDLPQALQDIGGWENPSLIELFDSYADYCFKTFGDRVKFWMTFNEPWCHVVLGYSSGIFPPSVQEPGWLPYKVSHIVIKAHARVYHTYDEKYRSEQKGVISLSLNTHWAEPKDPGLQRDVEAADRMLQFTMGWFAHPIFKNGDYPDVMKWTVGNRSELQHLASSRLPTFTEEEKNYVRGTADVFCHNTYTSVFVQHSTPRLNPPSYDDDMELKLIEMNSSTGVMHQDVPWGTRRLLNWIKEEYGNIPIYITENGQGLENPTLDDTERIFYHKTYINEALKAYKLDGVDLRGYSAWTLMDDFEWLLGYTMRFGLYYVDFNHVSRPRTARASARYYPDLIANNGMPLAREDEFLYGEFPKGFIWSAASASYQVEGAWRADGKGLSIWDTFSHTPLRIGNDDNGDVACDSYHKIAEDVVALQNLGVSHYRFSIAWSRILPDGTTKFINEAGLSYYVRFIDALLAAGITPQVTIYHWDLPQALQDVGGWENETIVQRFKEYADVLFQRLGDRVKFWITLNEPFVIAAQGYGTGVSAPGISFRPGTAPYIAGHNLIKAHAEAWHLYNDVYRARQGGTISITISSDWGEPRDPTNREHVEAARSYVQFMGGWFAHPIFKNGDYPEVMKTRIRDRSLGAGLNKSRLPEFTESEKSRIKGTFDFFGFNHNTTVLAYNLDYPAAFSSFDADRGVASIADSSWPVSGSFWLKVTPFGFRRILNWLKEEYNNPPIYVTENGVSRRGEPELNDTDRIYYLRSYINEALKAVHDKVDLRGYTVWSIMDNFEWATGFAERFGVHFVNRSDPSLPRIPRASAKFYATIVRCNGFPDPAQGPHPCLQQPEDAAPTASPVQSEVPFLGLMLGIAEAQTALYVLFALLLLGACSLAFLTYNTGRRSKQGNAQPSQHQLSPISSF
Test [7] deals with T3, Sucrase-isomaltase, intestinal. As to the kind of experiment: Inhibition of Sucrase in rat intestinal brush border membranes by D-glucose oxidase-peroxidase method. It counts as cell membranes, Membrane.

pIC50, pKi: −log10 of the molar value. In brackets after ≈: the same amount, converted by molar mass.

Turning to `CCCCN1C[C@H](O)[C@@H](O)[C@H](O)[C@H]1CO`, the pIC50 at Alpha-mannosidase 2 is greater than 4.30; in test [1], 4.82; in test [2], 5.28; in [4], greater than 4.30; at Trehalase, 4.89. The pKi in [3] was 5.43. In the test on MOLT-4, this compound had a half-maximal effective concentration (EC50) of 37 µg/mL (≈ 169 µM).
As to `CCCCN1C[C@@H](O)[C@H](O)[C@H]1CO`, the pIC50 at Alpha-mannosidase 2 is 3.89; in test [1], 3.70; in [2], 3.12; in [4], greater than 4.30; in [5], 3.47; in test [6], greater than 4.30. For the same compound, the pIC50 in test [7] was 3.57; against Trehalase, greater than 4.30. Also, the pKi in test [3] is 4.02. This compound also returned an EC50 in the test with MOLT-4 greater than 100 µg/mL.
In the case of `CN1C[C@H](O)[C@@H](O)[C@H](O)[C@H]1CO`, the pIC50 is greater than 4.30 on Alpha-mannosidase 2; 4.70 in test [1]; 5.82 in test [2]; 5.36 in test [5]; 5.36 in [6]; 7.40 in test [7]. For the same compound, the pIC50 against Trehalase is 4.55. This compound also gave a negative logarithm of the Ki (pKi) in [3] of 5.24. The response with MOLT-4 was half-maximal at 100 µg/mL (≈ 564 µM) (EC50).
As to `CN1C[C@@H](O)[C@H](O)[C@H]1CO`, the pIC50 against Alpha-mannosidase 2 is 4.19; in test [1], 3.51; in test [2], 3.74; in test [4] it was greater than 4.30; in test [5], 4.00; in test [6], greater than 4.30. In addition, the pIC50 was 4.15 in test [7] and greater than 4.30 at Trehalase. Further, the pKi in test [3] is 3.82. In the test with MOLT-4, this compound had an EC50 greater than 100 µg/mL.

Values taken from ChEMBL document CHEMBL1128713, “N-alkylated nitrogen-in-the-ring sugars: conformational basis of inhibition of glycosidases and HIV-1 replication” (J Med Chem, 1995).
